Experiments:
[1] = tested on: whole blood from healthy human donors; assay: Cytokine induction in vitro in whole blood from healthy human donors (Example 2.5); type: cell-based; conditions: blood diluted 1:1 in RPMI, 18 to 20 hours, averages for all 20 donors, FIG. 9; for Type I IFN induction in human whole blood (active concentration): HEK-Blue™ IFN-α/β-KO-STING reporter; for IL-1 induction in human whole blood (active concentration): HEK-Blue™ IL-1R reporter; for TNF-α induction in human whole blood (active concentration): HEK-Blue™ TNF-α reporter
Source text: HEK-Blue™ cell lines: The following three cell lines also were used for biological evaluation of the CDNs. • 1. HEK-Blue™ IFN-α/β-KO-STING: These cells are derived from HEK-Blue™ IFN-α/β cells (InvivoGen catalog code: hkb-ifnab), in which the STING gene has been inactivated. HEK-Blue™ IFN-α/β cells enable detection of bioactive human type I IFNs through monitoring of activation of the ISGF3 pathway. These cells were generated by stable transfection of HEK293 cells with the human STAT2 and IRF9 genes to obtain a fully active type I IFN signaling pathway. The other genes of the pathway (IFNAR1, IFNAR2, JAK1, TyK2 and STAT1) are naturally expressed in sufficient amounts. The cells were further transfected with a SEAP reporter gene under control of an IFN-α/β-inducible ISG54 promoter. Stimulation of HEK-Blue™ IFN-α/β cells with human IFN-α or IFN-β activates the JAK/STAT/ISGF3 pathway and subsequently induces production of SEAP. Production of Type I interferons in these cells is measured using QUANTI-Blue™. • 2. HEK-Blue™ IL-1R (InvivoGen catalog code: hkb-illr): HEK-Blue™ IL-1R cells were designed to detect bioactive human and murine IL-1β through monitoring of activation of the NF-κB and AP-1 pathways. Additionally, these cells detect bioactive IL-1β from cynomolgus monkeys, dogs and rats. In fact, HEK-Blue™ IL-1R cells can detect IL-la and IL-1(3, as these cytokines bind to the same receptor, IL-1R. These cells derive from HEK-Blue™ IL-1β cells (InvivoGen catalog code: hkb-illb), in which the TNF-α response is blocked. Therefore, HEK-Blue™ IL-1R cells respond specifically to IL-1. These cells endogenously express the human IL-1 receptor and were stably transfected with the murine IL-1 receptor, rendering them very sensitive to both human and murine IL-1(3. HEK-Blue™ IL-1R cells express a SEAP reporter gene under control of an IFN-(3 minimal promoter fused to five NF-κB and five AP-1 binding sites. Binding of IL-1β to IL-1R on the surface of HEK-Blue™ IL-1R cells triggers a signaling cascade that leads to the activation of NF-κB and subsequent production of SEAP. Production of IL-1β in these cells is measured using QUANTI-Blue™. • 3. HEK-Blue™ TNF-II-[…](InvivoGen catalog code: hkb-tnfdmyd): HEK-Blue™ TNF-α cells enable detection of bioactive human and murine TNF-α through monitoring of activation of the NF-κB pathway. These cells were generated by stable transfection of HEK293 cells with a SEAP reporter gene under control of an IFN-(3 minimal promoter fused to five NF-κB and five AP-1 binding sites. They were further rendered unresponsive to IL-1β by knocking out the MyD88 gene. Stimulation of HEK-Blue™ TNF-α cells with TNF-α triggers activation of the NF-κB-inducible promoter and production of SEAP. Production of TNF-α in these cells is measured using QUANTI-Blue™. Quantification of IL-6 in Experiments
Acquisition and Handling of Human Blood Samples
Twenty human blood samples were acquired from heathy donors at the San Diego Blood Bank (3636 Gateway Center Ave, Suite 100; San Diego, Calif. 92102; USA; www.sandiegobloodbank.org). Briefly, the samples were collected by venipuncture into sodium heparin (green-cap) tubes at the time of donation, and then stored at 4° C. until pick-up. The tubes were picked up on the day of collection, stored on ice during transport, and subsequently tested with the CDNs on the same day.
Each blood sample was diluted (1:1) in RPMI medium and aliquoted into 96-well plates (180-[…]L wells) containing each CDN at six different concentrations (30 µg/mL, 10 µg/mL, 3 µg/mL, 1 µg/mL, 0.3 µg/mL and 0.1 µg/mL). The plates were incubated at 37° C. in a CO2 incubator for 18 to 20 hours. The next day the supernatants were collected, transferred into the corresponding wells of round-bottom 96-well plates, and stored at −80° C. […]

[2] = tested on: snake-venom phosphodiesterase (SVPD); assay: Resistance to enzymatic cleavage by SVPD, monitored by UHPLC-MS (Example 2.6); conditions: 37° C., FIGS. 10A, 10C; for Resistance to enzymatic degradation by SVPD, compared with corresponding non-fluorinated ribo-CDN analog: 7 μg CDN, 160 μg SVPD in PBS with 0.6 mM MgCl2, 0 to 120 hours; for Resistance to SVPD, compared with corresponding analog containing two phosphodiester linkages: phosphorothioate vs phosphodiester fluorinated deoxyribo-CDNs
Description: (§1) • Enzymes used: snake-venom phosphodiesterase (SVPD) and nuclease P1 (NP1) • Subject CDNs tested: CL603, CL632, CL614 and CL656 • Reference (non-fluorinated) CDNs tested: c-GAMP and c-AIMP • Property evaluated: resistance to enzymatic cleavage
(§2) We incubated each CDN with either of two enzymes known to cleave nucleic acids and CDNs, and then looked for signs of degradation by UHPLC over time, by measuring the decrease in the area of the peak corresponding to the CDN (identified according to MS). Specifically, we assessed the resistance of the CDNs to snake-venom phosphodiesterase (SVPD) and nuclease P1 (NP1), both of which can degrade CDNs by cleaving the phosphodiester nucleotide linkages. The experiment was performed as follows:
(§3) Each CDN (7 […]g) was separately incubated with a solution (21 µL) of either enzyme (either 160 µg SVPD in PBS buffer containing 0.6 mM MgCl2; or 2.5 mU NP1 in 30 mM acetate buffer containing 2 mM ZnCl2 [pH 5.3]), or with water (as control) in a water bath at 37° C. Aliquots of the reaction mixture were collected at various time points from 0 to 120 hours, heated at 100° C. for 2 min, and then frozen at […] Finally, 10 µL of each aliquot was injected directly into the HPLC (Agilent 1290 Infinity UHPLC equipped with a UV-detector; column: Waters Acquity UPLC CSH C18 1.7 µm [2.1 mm×50 mm; flow rate: 0.3 mL/min]; detection at 254 nm; autosampler temperature: 25° C.) for analysis. The following gradient was used: 100% A (10 mM aq. ammonium formate) for 1 minute; then 100% A to 100% B (acetonitrile) over 5 minutes.
(§4) The percentage of absorbance of CDNs at each time point was calculated by dividing the peak area corresponding to the parent CDN, by the sum of all the peak areas in the chromatogram, and then multiplying by 100.

[3] = literature example (Li, 2014); cited from earlier work
nuclease P1 (NP1) = target: T1, nuclease P1 (NP1) (Penicillium citrinum, UniProt P24289); assay: Resistance to enzymatic cleavage by NP1, monitored by UHPLC-MS (Example 2.6); conditions: 7 μg CDN; 2.5 mU NP1 in 30 mM acetate buffer with 2 mM ZnCl2, pH 5.3; 37° C.; 0 to 120 hours; FIGS. 10B, 10D
T1 sequence (P24289 1-270): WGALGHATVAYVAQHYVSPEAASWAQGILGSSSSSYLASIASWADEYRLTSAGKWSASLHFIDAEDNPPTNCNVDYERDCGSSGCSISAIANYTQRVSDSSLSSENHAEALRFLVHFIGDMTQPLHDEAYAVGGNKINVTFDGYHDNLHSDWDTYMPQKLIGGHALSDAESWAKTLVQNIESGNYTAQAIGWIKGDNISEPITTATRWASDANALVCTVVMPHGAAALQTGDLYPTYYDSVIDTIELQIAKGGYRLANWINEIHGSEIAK
Description: as §1, §2, §3, §4

mice = assay: Cytokine induction in CDN-treated mice (Example 2.3); type: in vivo, mouse; conditions: Swiss mice; 10 mg/kg i.v.; 4 h post-injection; RAW ISG54 reporter cells; FIG. 6
Source text: Interleukin-6 was quantified using an enzyme-linked immunoassay (ELISA) according to the manufacturer's instructions (R&D Systems).
• Species evaluated: mouse • Cyclic dinucleotides tested: CL604, CL606, CL609, CL611 and CL614 • Reference compound: c-AIMP and saline • Cytokines evaluated: IFN-α/β (using RAW ISG54 reporter cells) and IL-6 (by ELISA).
Twenty-one mice (Swiss; female; mean age: 8 weeks) were divided into seven groups of three: one group served as control (saline) and the other six groups were each treated with a cyclic dinucleotide (either c-AIMP, CL604, CL606, CL609, CL611 or CL614). On Day −7, blood samples for basal cytokine levels were collected from all mice and stored at −20° C. until analysis. On Day 1, the mice were treated with either 200 μL of physiologic serum (containing 0.9% NaCl) or 200 μL of a solution of a cyclic dinucleotide (dose: 10 mg/kg) in physiologic serum (containing 0.9% NaCl), by intravenous (i.v.) injection. Blood samples were collected from the mice at 4 h post-injection, and then stored at −20° C. until analysis. Cytokine induction was measured in the sera from the blood samples.

SMILES | Type I IFN induction in human whole blood (active concentration) [1] | IL-1 induction in human whole blood (active concentration) [1] | TNF-α induction in human whole blood (active concentration) [1] | Resistance to enzymatic degradation by SVPD, compared with corresponding non-fluorinated ribo-CDN analog [2] | Resistance to SVPD, compared with corresponding analog containing two phosphodiester linkages [2] | Resistance to enzymatic hydrolysis compared with phosphodiester analog [3] | Resistance to enzymatic degradation by NP1, compared with corresponding non-fluorinated ribo-CDN analog (nuclease P1 (NP1)) | Type I interferon (IFN-α/β) induction in sera from mice (mice)
Nc1ncnc2c1ncn2C1OC2COP(=O)(S)O[C@@H]3C(COP(=O)(S)O[C@H]2[C@H]1F)OC(n1cnc2c(=O)[nH]cnc21)[C@@H]3F (mixture of isomers) [CL656] | more active than is its corresponding non-fluorinated analog | more active than is its corresponding non-fluorinated analog | more active than is its corresponding non-fluorinated analog | more resistant to enzymatic degradation | more resistant to SVPD | – | – | –
Nc1nc2c(ncn2[C@@H]2O[C@@H]3COP(O)(=S)O[C@H]4[C@@H](O)[C@H](n5cnc6c(N)ncnc65)O[C@@H]4COP(=O)(S)O[C@@H]2[C@@H]3O)c(=O)[nH]1 (stereo partly drawn) [(2′,3′) c-GAMP(S)] | – | – | – | – | – | more resistant to enzymatic hydrolysis | – | –
Nc1nc2c(ncn2C2OC3COP(=O)(O)O[C@@H]4C(COP(=O)(O)O[C@H]3[C@H]2F)OC(n2cnc3c(N)ncnc32)[C@@H]4F)c(=O)[nH]1 (some centres unmarked) [CL603] | more active than is its corresponding non-fluorinated analog | more active than is its corresponding non-fluorinated analog | more active than is its corresponding non-fluorinated analog | more resistant to enzymatic degradation | – | – | more resistant to enzymatic degradation | –
Nc1ncnc2c1ncn2C1OC2COP(=O)(O)O[C@H]3C(n4cnc5c(=O)[nH]cnc54)OC(COP(=O)(O)O[C@@H]1[C@@H]2O)[C@H]3O (some centres unmarked) [CL611] | – | – | – | – | – | – | – | except CL611 strongly induced Type I interferons
Nc1ncnc2c1ncn2C1OC2COP(=O)(O)O[C@@H]3C(COP(=O)(O)O[C@H]2[C@H]1F)OC(n1cnc2c(=O)[nH]cnc21)[C@@H]3F (some centres unmarked) [CL614] | more active than is its corresponding non-fluorinated analog | more active than is its corresponding non-fluorinated analog | more active than is its corresponding non-fluorinated analog | more resistant to enzymatic degradation | – | – | more resistant to enzymatic degradation | –
Nc1nc2c(ncn2C2OC3COP(=O)(S)O[C@@H]4C(COP(=O)(S)O[C@H]3[C@H]2F)OC(n2cnc3c(N)ncnc32)[C@@H]4F)c(=O)[nH]1 (some centres unmarked) [CL632] | – | – | – | more resistant to enzymatic degradation | more resistant to SVPD | – | more resistant to enzymatic degradation | –

Source: US11667664B2, “Cyclic dinucleotides for cytokine induction” (KAYLA THERAPEUTICS, priority 2014, dated 2023)
